In patent US20180036289A1 (Gilead Sciences, Inc., priority 2016, published 2018):

Tests used:
Assay in all cases: Cell proliferation assay (ATPlite), drug with vs without cobicistat
Assay type in all cases: cell-based
[1] = system: MeWo; conditions: MeWo cell line; 120 hours incubation
Experimental: (§1) All cell lines were obtained from the American Type Culture Collection (ATCC) Manassas, Va. (US). Master and working cell banks (MCB and WCB) were prepared by subculturing in ATCC-recommended media and freezing protocols (www.atcc.org). Cell line stocks for the assays were prepared from the WCB. The MCB, WCBs and assay stocks were prepared within respectively 3, 6 and 9 passages of the ATCC vial.
(§2) Solid powders of reference compounds were weighed on a calibrated balance and dissolved in 100% DMSO. DMSO samples were stored at room temperature. At the day of the experiment, the compound stock was diluted in 3.16 fold steps in 100% DMSO to obtain a 9-point dilution series. This was further diluted 31.6 times in 20 mM sterile Hepes buffer pH 7.4. A volume of 5 μl was transferred to the cells to generate a test concentration range from 3.16×10^−5M to 3.16×10^−9 M in duplicate. The final DMSO concentration during incubation was […] in all wells.
(§3) An assay stock was thawed and diluted in its ATCC recommended medium and dispensed in a 384-well plate, depending on the cell line used, at a concentration of 200-3200 cells per well in 45 μl medium. For each used cell line the optimal cell density is used. The margins of the plate were filled with phosphate-buffered saline. Plated cells were incubated in a humidified atmosphere of 5% CO2 at 37° C. After 24 hours, 5 μl of compound dilution was added and plates were further incubated for another 120 hours. After 120 hours, 25 μl of ATPlite 1Step™ (PerkinElmer) solution was added to each well, and subsequently shaken for 2 minutes. After 10 minutes of incubation in the dark, the luminescence was recorded on an Envision multimode reader (PerkinElmer).
(§4) IC50s were calculated by non-linear regression using IDBS XLfit 5. The percentage growth after 120 h (%-growth) was calculated as follows: 100%×(luminescencet=120h/luminescenceuntreated,t=120h). This was fitted to the ^10log compound concentration (conc) by a 4-parameter logistics curve: %−growth=bottom+(top−bottom)/(1+10^(log IC50-conc)*hill)), where hill is the Hill-coefficient, and bottom and top the asymptotic minimum and maximum cell growth that the compound allows in that assay.

[2] = system: FaDu; conditions: FaDu cell line; 120 hours incubation
Experimental: as §1, §2, §3, §4

[3] = system: SHP-77; conditions: SHP-77 cell line; 120 hours incubation
Experimental: as §1, §2, §3, §4

[4] = system: MIA PaCa-2; conditions: MIA PaCa-2 cell line; 120 hours incubation
Experimental: as §1, §2, §3, §4

[5] = system: C-33 A; conditions: C-33 A cell line; 120 hours incubation
Experimental: as §1, §2, §3, §4

[6] = system: MOLT-4; conditions: MOLT-4 cell line; 120 hours incubation
Experimental: as §1, §2, §3, §4

[7] = system: PA-1; conditions: PA-1 cell line; 120 hours incubation
Experimental: as §1, §2, §3, §4

[8] = system: RPMI-7951; conditions: RPMI-7951 cell line; 120 hours incubation
Experimental: as §1, §2, §3, §4

[9] = system: K-562; conditions: K-562 cell line; 120 hours incubation
Experimental: as §1, §2, §3, §4

[10] = system: VA-ES-BJ; conditions: VA-ES-BJ cell line; 120 hours incubation
Experimental: as §1, §2, §3, §4

[11] = system: SW480; conditions: SW480 cell line; 120 hours incubation
Experimental: as §1, §2, §3, §4

[12] = system: A-549; conditions: A-549 cell line; 120 hours incubation
Experimental: as §1, §2, §3, §4

[13] = system: A-704; conditions: A-704 cell line; 120 hours incubation
Experimental: as §1, §2, §3, §4

[14] = system: DU 145; conditions: DU 145 cell line; 120 hours incubation
Experimental: as §1, §2, §3, §4

[15] = system: SW620; conditions: SW620 cell line; 120 hours incubation
Experimental: as §1, §2, §3, §4

[16] = system: SK-N-FI; conditions: SK-N-FI cell line; 120 hours incubation
Experimental: as §1, §2, §3, §4

[17] = system: AsPC-1; conditions: AsPC-1 cell line; 120 hours incubation
Experimental: as §1, §2, §3, §4

[18] = system: SW48; conditions: SW48 cell line; 120 hours incubation
Experimental: as §1, §2, §3, §4

[19] = system: BT-20; conditions: BT-20 cell line; 120 hours incubation
Experimental: as §1, §2, §3, §4

[20] = system: RT4; conditions: RT4 cell line; 120 hours incubation
Experimental: as §1, §2, §3, §4

[21] = system: A375; conditions: A375 cell line; 120 hours incubation
Experimental: as §1, §2, §3, §4

[22] = system: SK-N-AS; conditions: SK-N-AS cell line; 120 hours incubation
Experimental: as §1, §2, §3, §4

[23] = system: A-427; conditions: A-427 cell line; 120 hours incubation
Experimental: as §1, §2, §3, §4

[24] = system: A-204; conditions: A-204 cell line; 120 hours incubation
Experimental: as §1, §2, §3, §4

[25] = system: U-2 OS; conditions: U-2 OS cell line; 120 hours incubation
Experimental: as §1, §2, §3, §4

[26] = system: SW948; conditions: SW948 cell line; 120 hours incubation
Experimental: as §1, §2, §3, §4

[27] = system: Hs 578T; conditions: Hs 578T cell line; 120 hours incubation
Experimental: as §1, §2, §3, §4

[28] = system: T98G; conditions: T98G cell line; 120 hours incubation
Experimental: as §1, §2, §3, §4

[29] = system: A-172; conditions: A-172 cell line; 120 hours incubation
Experimental: as §1, §2, §3, §4

[30] = system: NCI-H82; conditions: NCI-H82 cell line; 120 hours incubation
Experimental: as §1, §2, §3, §4

Row | Structure (SMILES) | Fold change in IC50 (IC50 [Drug + Cobicistat]/IC50 [Drug]) [1] [fold] | Fold change in IC50 (IC50 [Drug + Cobicistat]/IC50 [Drug]) [2] [fold] | Fold change in IC50 (IC50 [Drug + Cobicistat]/IC50 [Drug]) [3] [fold] | Fold change in IC50 (IC50 [Drug + Cobicistat]/IC50 [Drug]) [4] [fold] | Fold change in IC50 (IC50 [Drug + Cobicistat]/IC50 [Drug]) [5] [fold] | Fold change in IC50 (IC50 [Drug + Cobicistat]/IC50 [Drug]) [6] [fold] | Fold change in IC50 (IC50 [Drug + Cobicistat]/IC50 [Drug]) [7] [fold] | Fold change in IC50 (IC50 [Drug + Cobicistat]/IC50 [Drug]) [8] [fold] | Fold change in IC50 (IC50 [Drug + Cobicistat]/IC50 [Drug]) [9] [fold] | Fold change in IC50 (IC50 [Drug + Cobicistat]/IC50 [Drug]) [10] [fold] | Fold change in IC50 (IC50 [Drug + Cobicistat]/IC50 [Drug]) [11] [fold] | Fold change in IC50 (IC50 [Drug + Cobicistat]/IC50 [Drug]) [12] [fold] | Fold change in IC50 (IC50 [Drug + Cobicistat]/IC50 [Drug]) [13] [fold] | Fold change in IC50 (IC50 [Drug + Cobicistat]/IC50 [Drug]) [14] [fold] | Fold change in IC50 (IC50 [Drug + Cobicistat]/IC50 [Drug]) [15] [fold] | Fold change in IC50 (IC50 [Drug + Cobicistat]/IC50 [Drug]) [16] [fold] | Fold change in IC50 (IC50 [Drug + Cobicistat]/IC50 [Drug]) [17] [fold] | Fold change in IC50 (IC50 [Drug + Cobicistat]/IC50 [Drug]) [18] [fold] | Fold change in IC50 (IC50 [Drug + Cobicistat]/IC50 [Drug]) [19] [fold] | Fold change in IC50 (IC50 [Drug + Cobicistat]/IC50 [Drug]) [20] [fold] | also measured
1 | CC(=O)O[C@@]12CO[C@@H]1C[C@H](O)[C@@]1(C)C(=O)[C@H](O)C3=C(C)[C@@H](OC(=O)[C@H](O)[C@@H](NC(=O)OC(C)(C)C)c4ccccc4)C[C@@](O)([C@@H](OC(=O)c4ccccc4)[C@H]21)C3(C)C [docetaxel] | 2.3 | 1.7 | 3.5 | 4.2 | 1.5 | 1.7 | 5.2 | 3.3 | 3.2 | 5.0 | 2.3 | 1.1 | 2.3 | 4.8 | 2.7 | 5.1 | 5.0 | 1.6 | 1.7 | 4.4 | Fold change in IC50 (IC50 [Drug + Cobicistat]/IC50 [Drug]) [21]: 2.8 fold; Fold change in IC50 (IC50 [Drug + Cobicistat]/IC50 [Drug]) [22]: 3.3 fold; Fold change in IC50 (IC50 [Drug + Cobicistat]/IC50 [Drug]) [23]: 1.3 fold; Fold change in IC50 (IC50 [Drug + Cobicistat]/IC50 [Drug]) [24]: 5.7 fold; Fold change in IC50 (IC50 [Drug + Cobicistat]/IC50 [Drug]) [25]: 4.3 fold; Fold change in IC50 (IC50 [Drug + Cobicistat]/IC50 [Drug]) [26]: 3.5 fold; Fold change in IC50 (IC50 [Drug + Cobicistat]/IC50 [Drug]) [27]: 1.9 fold; Fold change in IC50 (IC50 [Drug + Cobicistat]/IC50 [Drug]) [28]: 7.7 fold; Fold change in IC50 (IC50 [Drug + Cobicistat]/IC50 [Drug]) [29]: 2.0 fold; Fold change in IC50 (IC50 [Drug + Cobicistat]/IC50 [Drug]) [30]: 2.2 fold
2 | CC[C@]1(O)C[C@@H]2CN(CCc3c([nH]c4ccccc34)[C@@](C(=O)OC)(c3cc4c(cc3OC)N(C)[C@H]3[C@@](O)(C(=O)OC)[C@H](OC(C)=O)[C@]5(CC)C=CCN6CC[C@]43[C@@H]65)C2)C1 [vinblastine] | 3.2 | 2.2 | 2.0 | 3.7 | 1.9 | 2.8 | 6.3 | 3.2 | 2.6 | 4.3 | 3.3 | 2.3 | 3.8 | 5.4 | 2.7 | 4.5 | 5.6 | 2.5 | 2.7 | 4.9 | Fold change in IC50 (IC50 [Drug + Cobicistat]/IC50 [Drug]) [21]: 3.4 fold; Fold change in IC50 (IC50 [Drug + Cobicistat]/IC50 [Drug]) [22]: 3.7 fold; Fold change in IC50 (IC50 [Drug + Cobicistat]/IC50 [Drug]) [23]: 2.7 fold; Fold change in IC50 (IC50 [Drug + Cobicistat]/IC50 [Drug]) [24]: 4.0 fold; Fold change in IC50 (IC50 [Drug + Cobicistat]/IC50 [Drug]) [25]: 4.4 fold; Fold change in IC50 (IC50 [Drug + Cobicistat]/IC50 [Drug]) [26]: 4.2 fold; Fold change in IC50 (IC50 [Drug + Cobicistat]/IC50 [Drug]) [27]: 3.7 fold; Fold change in IC50 (IC50 [Drug + Cobicistat]/IC50 [Drug]) [28]: 4.9 fold; Fold change in IC50 (IC50 [Drug + Cobicistat]/IC50 [Drug]) [29]: 3.0 fold; Fold change in IC50 (IC50 [Drug + Cobicistat]/IC50 [Drug]) [30]: 3.5 fold
